Test results taken from US9956181B2, “Composition of nanoformulated lycopene and method of using the composition” (priority 2015, dated 2018).

Legend:
[1] = tested on: ovariectomized (OVX) rats; assay: OVX rat study: ex vivo μCT analysis of tibial metaphysis and femur diaphysis; assay type: in vivo, Wistar rats
Procedure: (§1) A total of 264 Wistar female rats, ˜6 months old, were supplied by the Animal House at King Fahd Medical Research Center (KFMRC), KAU. Rats were housed in individual cages and maintained at 22° C. with a 12-h light/dark cycle. During the study period, rats were given standard rodent chow diet ad libitum (commercial rat cubes containing approximately 18% protein, 3% fat, 77% carbohydrate, and 2% of an inorganic-salt mixture with a vitamin supplement by weight, supplied by Grain Silos and Flour Mills Organization, Jeddah, Saudi Arabia) and water until the onset of intervention. Prior to surgery, rats were anesthetized with ketamine [(10% ketamine hydrochloride (80 mg/kg body weight), Cayman Chemical, Michigan, USA] and xylazine [(2% xylazine hydrochloride, 10 mg/kg body weight), Sigma-Aldrich Co., St. Louis, USA]. A single longitudinal skin incision was made on the dorsal midline at the level of the kidneys and both ovaries were ligated and removed to produce an ovariectomy in all OVX group animals. A SHAM-operated group, acting as a negative control for the effect of ovariectomy on bone parameters, underwent bilateral laparotomy, during which the ovaries were exposed but remained intact. […] The lycopene-supplemented groups were given lycopene (15, 30 and 45 mg/kg body weight per day) dissolved in corn oil by daily intra-gastric administration for the experimental period of 12 weeks. The SHAM, OVX and ALN control groups were given the same volume of corn oil without lycopene treatment. […] A 12-week randomized placebo-controlled study in order to examine the protective effects of lycopene supplementation on bone mass and fragility in OVX rats was concluded. Prior to surgery, body weight and bone mineral density (BMD) were obtained for all animals. Rats were randomized using a computer-generated randomization code into one of six groups: (1) sham-operated (SHAM; n=44); (2) ovariectomized control (OVX; n=44); (3) OVX lycopene-supplemented (15 mg/kg body weight per day) (n=44); (4) OVX lycopene-supplemented (30 mg/kg body weight per day) (n=44); (5) OVX lycopene-supplemented (45 mg/kg body weight per day) (n=44) and (6) OVX alendronate-treated (ALN) [2.0 μg/kg body weight per day subcutaneously (sc)] (n=44). Alendronate is an anti-resorptive agent for the treatment of osteoporosis and was used as a positive therapy control. […] All OVX groups were pair-fed with the SHAM group throughout the study to avoid the possible effects of ovariectomy-induced over-consumption and subsequent excessive weight gain. Treatment started 1 week after the surgery: this period of rest allowed the rats to recover from the stress associated with the surgery. In addition, after surgery, rats were administered Diclofenac sodium injection (20 mg/Kg body weight) to reduce the pain associated with the surgery. Rats were weighed and examined daily. Blood and urine samples were collected at baseline, during, and at the end of treatment for measurement of various BTMs and other analytes. In vivo dual energy x-ray absorptiometry (DXA) measurements were made for the bone mineral content (BMC) and BMD of the whole body, lumbar spine (L1-L4), and the right humerus, together with body composition at 12 weeks of treatment. One day following the post-test DXA assessments (at 12 weeks, 16 rats in each group), animals were euthanized by decapitation and right and left femurs were extracted for further biomechanical and histomorphometric analyses. Blood and urine samples were collected from all experimental groups to measure biochemical analytes and BTMs at baseline and 4, 8, and 12 weeks of treatment. Peripheral Quantitative CT (pQCT) scans were made of the proximal tibia metaphysis and the diaphysis. In vivo micro-computed tomographic (μCT) scans of the proximal tibia were obtained during the treatment period to monitor changes in bone mass and microarchitecture. […]

[2] = tested on: ovariectomized (OVX) rats; assay: OVX rat study: in vivo pQCT densitometry of tibia metaphysis; set-up: species or system Wistar rats; settings: 12 weeks, versus OVX control, P<0.001
Procedure: (§2) A total of 264 Wistar female rats, ˜6 months old, were supplied by the Animal House at King Fahd Medical Research Center (KFMRC), KAU. Rats were housed in individual cages and maintained at 22° C. with a 12-h light/dark cycle. During the study period, rats were given standard rodent chow diet ad libitum (commercial rat cubes containing approximately 18% protein, 3% fat, 77% carbohydrate, and 2% of an inorganic-salt mixture with a vitamin supplement by weight, supplied by Grain Silos and Flour Mills Organization, Jeddah, Saudi Arabia) and water until the onset of intervention. Prior to surgery, rats were anesthetized with ketamine [(10% ketamine hydrochloride (80 mg/kg body weight), Cayman Chemical, Michigan, USA] and xylazine [(2% xylazine hydrochloride, 10 mg/kg body weight), Sigma-Aldrich Co., St. Louis, USA]. A single longitudinal skin incision was made on the dorsal midline at the level of the kidneys and both ovaries were ligated and removed to produce an ovariectomy in all OVX group animals. A SHAM-operated group, acting as a negative control for the effect of ovariectomy on bone parameters, underwent bilateral laparotomy, during which the ovaries were exposed but remained intact. […] Peripheral Quantitative CT (pQCT) scans were made of the proximal tibia metaphysis and the diaphysis. […]

[3] = tested on: ovariectomized (OVX) rats; assay: OVX rat study: dynamic bone histomorphometry of tibial metaphysis and diaphysis; assay type: in vivo, Wistar rats
Procedure: as §1

[4] = tested on: ovariectomized (OVX) rats; assay: OVX rat study: in vivo DXA densitometry of lumbar spine and humerus; set-up: species or system Wistar rats; settings: 12 weeks, versus OVX control
Procedure: as §2

[5] = tested on: ovariectomized (OVX) rats; assay: OVX rat study: plasma GPx, SOD, CAT activities and urinary 8-OHdG; assay type: in vivo, Wistar rats
Procedure: Prior to surgery, rats were anesthetized with ketamine [(10% ketamine hydrochloride (80 mg/kg body weight), Cayman Chemical, Michigan, USA] and xylazine [(2% xylazine hydrochloride, 10 mg/kg body weight), Sigma-Aldrich Co., St. Louis, USA]. A single longitudinal skin incision was made on the dorsal midline at the level of the kidneys and both ovaries were ligated and removed to produce an ovariectomy in all OVX group animals. A SHAM-operated group, acting as a negative control for the effect of ovariectomy on bone parameters, underwent bilateral laparotomy, during which the ovaries were exposed but remained intact. […] The lycopene-supplemented groups were given lycopene (15, 30 and 45 mg/kg body weight per day) dissolved in corn oil by daily intra-gastric administration for the experimental period of 12 weeks. The SHAM, OVX and ALN control groups were given the same volume of corn oil without lycopene treatment. […] Prior to surgery, body weight and bone mineral density (BMD) were obtained for all animals. […] Alendronate is an anti-resorptive agent for the treatment of osteoporosis and was used as a positive therapy control. […] All OVX groups were pair-fed with the SHAM group throughout the study to avoid the possible effects of ovariectomy-induced over-consumption and subsequent excessive weight gain. Treatment started 1 week after the surgery: this period of rest allowed the rats to recover from the stress associated with the surgery. In addition, after surgery, rats were administered Diclofenac sodium injection (20 mg/Kg body weight) to reduce the pain associated with the surgery. Rats were weighed and examined daily. Blood and urine samples were collected at baseline, during, and at the end of treatment for measurement of various BTMs and other analytes. […] Blood and urine samples were collected from all experimental groups to measure biochemical analytes and BTMs at baseline and 4, 8, and 12 weeks of treatment.

[6] = OVX rat study: serum and liver lycopene by HPLC; assay type: in vivo, Wistar rats
Procedure: A total of 264 Wistar female rats, ˜6 months old, were supplied by the Animal House at King Fahd Medical Research Center (KFMRC), KAU. Rats were housed in individual cages and maintained at 22° C. with a 12-h light/dark cycle. During the study period, rats were given standard rodent chow diet ad libitum (commercial rat cubes containing approximately 18% protein, 3% fat, 77% carbohydrate, and 2% of an inorganic-salt mixture with a vitamin supplement by weight, supplied by Grain Silos and Flour Mills Organization, Jeddah, Saudi Arabia) and water until the onset of intervention. Prior to surgery, rats were anesthetized with ketamine [(10% ketamine hydrochloride (80 mg/kg body weight), Cayman Chemical, Michigan, USA] and xylazine [(2% xylazine hydrochloride, 10 mg/kg body weight), Sigma-Aldrich Co., St. Louis, USA]. A single longitudinal skin incision was made on the dorsal midline at the level of the kidneys and both ovaries were ligated and removed to produce an ovariectomy in all OVX group animals. A SHAM-operated group, acting as a negative control for the effect of ovariectomy on bone parameters, underwent bilateral laparotomy, during which the ovaries were exposed but remained intact. […] The lycopene-supplemented groups were given lycopene (15, 30 and 45 mg/kg body weight per day) dissolved in corn oil by daily intra-gastric administration for the experimental period of 12 weeks. The SHAM, OVX and ALN control groups were given the same volume of corn oil without lycopene treatment. […] A 12-week randomized placebo-controlled study in order to examine the protective effects of lycopene supplementation on bone mass and fragility in OVX rats was concluded. Prior to surgery, body weight and bone mineral density (BMD) were obtained for all animals. […] Peripheral Quantitative CT (pQCT) scans were made of the proximal tibia metaphysis and the diaphysis. […]

[7] = 12 weeks, lycopene, ALN 2.0 μg/kg/day, P<0.001
[8] = lycopene 15-45 mg/kg/day, 12 weeks, range over doses

CC(C)=CCC/C(C)=C/C=C/C(C)=C/C=C/C(C)=C/C=C/C=C(C)/C=C/C=C(C)/C=C/C=C(\C)CCC=C(C)C [lycopene]
decrease in Tb.Sp, tibia metaphysis (μCT), compared with OVX group [1, 7]: 46.8% | increase in BV/TV, tibia metaphysis (μCT), compared with OVX group [1, 7]: 123.9% | increase in Tb.N, tibia metaphysis (μCT), compared with OVX group [1, 7]: 52.8% | increase in Tb.Th, tibia metaphysis (μCT), compared with OVX group ([1]; 12 weeks, lycopene, P<0.001): 78.4% | relative bone volume (BV/TV) of the femur diaphysis (μCT) ([1]; OVX rats, 12 weeks): nor lycopene or ALN treatment had significant effects | femoral cortical values for Ct.Th and Ct.Po (μCT) ([1]; lycopene 30 and 45 mg/kg/day, ALN, versus SHAM and OVX groups): improved | OVX-induced bone loss (total and trabecular BMD, proximal tibia, pQCT) [2]: significantly prevented | osteoclast surface (Oc.S/BS) and osteoclast number (N.Oc/BS) ([3]; OVX rats, lycopene, P<0.001): significant decreases | bone formation parameters (Ob.S/BS, MS/BS, BFR/BS, BFR/BV) ([3]; OVX rats, lycopene, tibial metaphysis): prevented OVX-induced increases | increase in BV/TV, tibial metaphysis (histomorphometry), compared with OVX control [3, 8]: 27.1-92.2% | increase in Tb.N, tibial metaphysis (histomorphometry), compared with OVX control [3, 8]: 9.2-72.9% | OVX-related increases in endocortical bone turnover formation (Ec.L.Pm/Ec.Pm, Ec MAR, Ec.BFR/BS) ([3]; lycopene greater than 15 mg/kg body weight per day, tibial diaphysis): completely prevented | bone dynamics on the periosteal surface ([3]; lycopene, except at 45 mg/kg body weight per day): positively affected | OVX-induced bone loss (BMC and BMD, lumbar spine and humerus, DXA) [4]: significantly prevented | plasma GPx, CAT and SOD activities ([5]; after lycopene treatment): increased | increase in plasma GPx activity compared to the OVX control ([5]; lycopene 15-45 mg/kg/day, P<0.001): 30.6-57.2% | urinary 8-OHdG levels ([5]; lycopene, dose-dependent manner, P<0.001): significantly decreased | Liver lycopene levels versus 15 mg/kg per day group ([6]; 30 and 45 mg/kg body weight per day groups): significantly higher | concentration at 12 weeks ([6]; female, Wistar, rat, serum, 45 mg/kg/day, OVX rats, at 12 weeks, 45 mg/kg body weight per day oral, read-out: Serum lycopene levels): 71.5 ± 4.65 nM | lycopene in serum and livers ([6]; rats treated with lycopene, dose-dependent fashion): detected
